In PubChem BioAssay (NCI):
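Grown in 96-well plates, cells were treated for 48 hours with each compound at five concentrations. Insufficient inhibition: endpoint recorded as highest concentration tested. TGI is the concentration that stops growth completely.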

The molecules below were run on NCI-H226 lung (assay: growth of human tumour cells (NCI), 48 h).

SMILES | TGI
CCOC(=O)C(C(=O)OCC)=C1NC2(c3ccccc3Nc3ccc(C)cc32)C(C#N)S1 (configuration not stated) | 25.3 µM
COC(=O)Nc1nc2ccc(S(=O)(=O)NC(CC(C)C)C(=O)OC)cc2[nH]1 (configuration not stated) | > 100 µM
CC(C)(C)[Si](C)(C)O[C@@H](C(=O)OC1C=CCCC1)[C@@H](NC(=O)c1ccccc1)c1ccccc1 (some centres not stated) | > 100 µM
O=C(Nc1cccc2ccccc12)Nn1cnnc1 | > 100 µM
Cc1oc2c(c1C)S(=O)(=O)C(C#N)=C(c1ccccc1)N2 | > 100 µM
Cc1ccc2c(c1)C(=O)/C(=N/Nc1ccc(Cl)cc1)CCO2 | > 100 µM
CN(C)c1ccc(/C=N\NC(=O)c2ccccc2Nc2ccccc2C(=O)N/N=C/c2ccc(N(C)C)cc2)cc1 | > 100 µM
CC(=O)O[C@@H]1CC[C@@]2(C)C(CC[C@H]3[C@@H]4CC[C@H]([C@H](C)CCc5nc6ccc(C)cc6[nH]5)[C@@]4(C)CC[C@@H]32)C1 (some centres not stated) | 48.1 µM
C=C1C(=O)OC2/C=C(\CO)C3OC3C3OC3(C)CC(OC(=O)/C(=C/C)CO)C12 (configuration not stated) | > 100 µM
Cc1ccc(-n2cnc3c(N)nc(N)nc32)cc1 | > 100 µM
CNc1c2cccc(C)c2nc2c(C(=O)NCCN(C)C)cccc12 | 0.847 µM
CCC(Sc1cc(Cl)c(C)cc1S(=O)(=O)Nc1nc(N)nc(N(C)C)n1)C(=O)O (configuration not stated) | > 10 µM
O=c1c(C=Nc2ccccc2Cl)c(O)n(-c2ccccc2)c(=O)n1-c1ccccc1 | > 100 µM
CCOC(=O)NNC(=O)C1CSC(c2ccccc2)N1C(C)=O (configuration not stated) | > 100 µM
CC(C)(C)O/C=C1/C(=O)OC2C[C@@H](O[Si](C)(C)C(C)(C)C)CC12 (some centres not stated) | > 100 µM
COc1ccc2nc3c([N+](=O)[O-])ccc4c3c(c2c1)N=CN4CCCN(C)C | 24.9 µM
O=C1CC(=O)NC(=NN2C(=O)/C(=C/C(=O)c3ccco3)N=C2c2ccccc2)N1 | > 100 µM

These molecules were tested on OVCAR-4 ovarian (assay: growth of human tumour cells (NCI), 48 h).

SMILES | TGI
Cc1oc2c(c1C)S(=O)(=O)C(C#N)C(c1ccccc1)N2 (configuration not stated) | > 100 µM
CC(=O)Oc1cc2c(n(C)c1=O)-c1ccccc1C2 | > 100 µM
COc1ccc2cc(Oc3ccc(Cl)cc3)c(=O)oc2c1 | > 100 µM
CN(C)C=C1C(=O)c2c(Br)sc(Br)c2C1=O | 31.7 µM
CCN(CC)C(=C(C(Cl)=C(Cl)Cl)[N+](=O)[O-])N(CC)CC | > 100 µM
CCOC(=O)C(C(=O)OCC)=C1NC2(c3ccccc3Nc3ccc(C)cc32)C(C#N)S1 (configuration not stated) | 40.7 µM
COC(=O)Nc1nc2ccc(S(=O)(=O)NC(CC(C)C)C(=O)OC)cc2[nH]1 (configuration not stated) | > 100 µM
CC(C)(C)[Si](C)(C)O[C@@H](C(=O)OC1C=CCCC1)[C@@H](NC(=O)c1ccccc1)c1ccccc1 (some centres not stated) | > 100 µM
O=C(Nc1cccc2ccccc12)Nn1cnnc1 | > 100 µM
Cc1oc2c(c1C)S(=O)(=O)C(C#N)=C(c1ccccc1)N2 | > 100 µM
Cc1ccc2c(c1)C(=O)/C(=N/Nc1ccc(Cl)cc1)CCO2 | > 100 µM
CN(C)c1ccc(/C=N\NC(=O)c2ccccc2Nc2ccccc2C(=O)N/N=C/c2ccc(N(C)C)cc2)cc1 | > 100 µM
CC(=O)O[C@@H]1CC[C@@]2(C)C(CC[C@H]3[C@@H]4CC[C@H]([C@H](C)CCc5nc6ccc(C)cc6[nH]5)[C@@]4(C)CC[C@@H]32)C1 (some centres not stated) | > 100 µM
C=C1C(=O)OC2/C=C(\CO)C3OC3C3OC3(C)CC(OC(=O)/C(=C/C)CO)C12 (configuration not stated) | > 100 µM
Cc1csc2nc3c(cnn3C)c(=S)n12 | > 100 µM
Cc1ccc(-n2cnc3c(N)nc(N)nc32)cc1 | > 100 µM
CNc1c2cccc(C)c2nc2c(C(=O)NCCN(C)C)cccc12 | 0.114 µM
CCC(Sc1cc(Cl)c(C)cc1S(=O)(=O)Nc1nc(N)nc(N(C)C)n1)C(=O)O (configuration not stated) | > 10 µM
O=c1c(C=Nc2ccccc2Cl)c(O)n(-c2ccccc2)c(=O)n1-c1ccccc1 | > 100 µM
CCOC(=O)NNC(=O)C1CSC(c2ccccc2)N1C(C)=O (configuration not stated) | > 100 µM
CC(C)(C)O/C=C1/C(=O)OC2C[C@@H](O[Si](C)(C)C(C)(C)C)CC12 (some centres not stated) | > 100 µM
O=C1CC(=O)NC(=NN2C(=O)/C(=C/C(=O)c3ccco3)N=C2c2ccccc2)N1 | > 100 µM

These molecules were tested on OVCAR-5 ovarian (assay: growth of human tumour cells (NCI), 48 h).

SMILES | TGI
Cc1oc2c(c1C)S(=O)(=O)C(C#N)C(c1ccccc1)N2 (configuration not stated) | > 100 µM
CC(=O)Oc1cc2c(n(C)c1=O)-c1ccccc1C2 | > 100 µM
COc1ccc2cc(Oc3ccc(Cl)cc3)c(=O)oc2c1 | > 100 µM
CN(C)C=C1C(=O)c2c(Br)sc(Br)c2C1=O | 76.2 µM
CCN(CC)C(=C(C(Cl)=C(Cl)Cl)[N+](=O)[O-])N(CC)CC | > 100 µM
CCOC(=O)C(C(=O)OCC)=C1NC2(c3ccccc3Nc3ccc(C)cc32)C(C#N)S1 (configuration not stated) | 27.7 µM
COC(=O)Nc1nc2ccc(S(=O)(=O)NC(CC(C)C)C(=O)OC)cc2[nH]1 (configuration not stated) | 95.1 µM
OC(CCN1CCCCC1)(c1ccccc1)c1ccccc1 | > 100 µM
CC(C)(C)[Si](C)(C)O[C@@H](C(=O)OC1C=CCCC1)[C@@H](NC(=O)c1ccccc1)c1ccccc1 (some centres not stated) | > 100 µM
O=C(Nc1cccc2ccccc12)Nn1cnnc1 | > 100 µM
Cc1oc2c(c1C)S(=O)(=O)C(C#N)=C(c1ccccc1)N2 | > 100 µM
Cc1ccc2c(c1)C(=O)/C(=N/Nc1ccc(Cl)cc1)CCO2 | > 100 µM
CN(C)c1ccc(/C=N\NC(=O)c2ccccc2Nc2ccccc2C(=O)N/N=C/c2ccc(N(C)C)cc2)cc1 | > 100 µM
CC(=O)O[C@@H]1CC[C@@]2(C)C(CC[C@H]3[C@@H]4CC[C@H]([C@H](C)CCc5nc6ccc(C)cc6[nH]5)[C@@]4(C)CC[C@@H]32)C1 (some centres not stated) | > 100 µM
C=C1C(=O)OC2/C=C(\CO)C3OC3C3OC3(C)CC(OC(=O)/C(=C/C)CO)C12 (configuration not stated) | > 100 µM
Cc1csc2nc3c(cnn3C)c(=S)n12 | > 100 µM
C/C1=C/C(C)CC(C)OC(=O)C(C)NC(=O)C(Cc2ccc(O)c(I)c2)N(C)C(=O)CNC(=O)C(C)C1 (configuration not stated) | > 100 µM
Cc1ccc(-n2cnc3c(N)nc(N)nc32)cc1 | > 100 µM
